PMC12593371, “Whole-Body Disposition and Metabolism of [^14C]-2,4,4′-Trichlorobiphenyl (PCB28) Following Lung Administration in Rats” (Environmental Science & Technology, 2025)

Columns and labels:
[1] = parameters: method as in our prior study (number not given); conditions: acute inhalation exposure to a PCB mixture, estimated dose 40 μg/rat; ref our prior study (number not given); cited from earlier work
[2] = Toxicokinetic parameters by noncompartmental analysis after intratracheal administration of [14C]-PCB28; assay type: in vivo, Male Sprague–Dawley rats
From the text: (§1) Male Sprague–Dawley rats (8 weeks old) weighing 230–285 g (mean of 256 g) were used in this study (Envigo, Indianapolis, IN). Male rats were selected to maintain consistency with previous toxicokinetic investigations of lower-chlorinated PCBs, specifically the study on intratracheally instilled ^14C-labeled dichlorinated PCB11, which also utilized male rats. This approach facilitated direct comparison across studies and contributed to a more comprehensive toxicokinetic data set for LC-PCBs following inhalation exposure. A PCB toxicokinetic study being published separately investigated placental transfer and fetal uptake in pregnant females. All animals were handled in compliance with an approved Institutional Animal Care and Use Committee protocol (protocol#: 3091097 approved on 10/12/2023). Rats were pair-housed in a light and temperature-controlled environment with access to food and water ad libitum. After 1 week of acclimatization, rats were assigned to either a high-dose (HD) group (n = 9) or a low-dose (LD) group (n = 5) at random. Control rats (n = 3) were exposed to a single dose of unlabeled PCB28 (42 μg in 200 μL) and necropsied 50 min after exposure to establish background levels for radioactivity calculations in blank tissues. […] Therefore, animal numbers were customized between groups to most efficiently utilize the limited available ^14C-PCB28 stock in our lab.
Animals in the HD group were intratracheally (i.t.) administered 42 μg of a one-time single dose of [^14C]-PCB28 in 200 μL of vehicle, while animals in the LD group received 4.2 μg of [^14C]-PCB28 in 100 μL of vehicle. The i.t. route for dosing was selected due to the limited availability and extraordinary cost of the radiolabeled PCB28, and to avoid ^14C contamination of the inhalation exposure apparatus. All i.t. instillation was performed under light anesthesia (4% isoflurane via a precision vaporizer Fortec, Cyprane, Keighley, UK). […] Air was drawn from the chamber at 6.0 L/min through a cartridge containing XAD-2 polymeric resin (Amberlite, Millipore Sigma, Burlington, MA) to capture any exhaled [^14C]-PCB28. For the longer time points (720 and 1440 min), individual rats were placed in metabolic cages following a similar protocol for excreta and exhaled breath collection. After exposure, the inner walls of the chamber were rinsed separately with water, acetone, and hexane (25 – 45 mL) and wiped to measure radioactivity. Rat fur was also wiped and analyzed for radioactivity. The rats exposed to the HD were euthanized using isoflurane and exsanguination via cardiac puncture at 12, 25, 50, 100, 200, 400, 720, and 1440 min postexposure (n = 1 per time point except n = 2 for 200 min). […] Euthanasia was consistently performed during the light cycle, except in the case of the 720 min time point, wherein euthanasia occurred outside the light cycle.
(§2) Serum and blood cells were separated. Two to six technical replicates were collected from 36 tissue types and digestive matter (diluted in ultrapure water) from 5 different GI tract locations. Muscle and adipose tissue samples were obtained from various locations. The collected tissue samples were placed in scintillation vials containing 1 mL of solvable cocktail and kept at 37 °C overnight for complete solubilization. To enable subsequent analyses, the solubilized tissue samples underwent a 2-h heating phase at 50 °C. For the bone, feces, and digestive matter, 1 mL of isopropyl alcohol was added. For samples displaying darker coloration, a controlled volume of 30% hydrogen peroxide (100 to 300 μL) was slowly added in increments to remove potential interference.

[3] = Mass balance and whole-body tissue distribution of radioactivity after intratracheal [14C]-PCB28; assay type: in vivo, Male Sprague–Dawley rats; conditions: for contribution of adipose tissue to total radioactivity: 720 min; for share of the remaining radioactivity: 12 min
From the text: as §1
(§3) Animals in the HD group were intratracheally (i.t.) administered 42 μg of a one-time single dose of [^14C]-PCB28 in 200 μL of vehicle, while animals in the LD group received 4.2 μg of [^14C]-PCB28 in 100 μL of vehicle. The i.t. route for dosing was selected due to the limited availability and extraordinary cost of the radiolabeled PCB28, and to avoid ^14C contamination of the inhalation exposure apparatus. All i.t. instillation was performed under light anesthesia (4% isoflurane via a precision vaporizer Fortec, Cyprane, Keighley, UK). Rats recovered from the anesthesia within 2 min while held within a cylindrical glass chamber (2 L), equipped with drainage ports to facilitate urine collection and a metallic screen to segregate urine from feces (as illustrated in Figure S1). Air was drawn from the chamber at 6.0 L/min through a cartridge containing XAD-2 polymeric resin (Amberlite, Millipore Sigma, Burlington, MA) to capture any exhaled [^14C]-PCB28. For the longer time points (720 and 1440 min), individual rats were placed in metabolic cages following a similar protocol for excreta and exhaled breath collection. After exposure, the inner walls of the chamber were rinsed separately with water, acetone, and hexane (25 – 45 mL) and wiped to measure radioactivity. Rat fur was also wiped and analyzed for radioactivity. The rats exposed to the HD were euthanized using isoflurane and exsanguination via cardiac puncture at 12, 25, 50, 100, 200, 400, 720, and 1440 min postexposure (n = 1 per time point except n = 2 for 200 min). Animals exposed to the LD were similarly necropsied at time points of 2, 12, 50, 200, and 720 min postexposure (n = 2). Euthanasia was consistently performed during the light cycle, except in the case of the 720 min time point, wherein euthanasia occurred outside the light cycle.
as §2, with “interference. […]” for “interference.”

[4] = Fractionation of parent PCB28 and metabolites in serum, liver, adipose and kidney (liquid scintillation counting); assay type: in vivo, Male Sprague–Dawley rats; conditions: for peak concentration of parent compound in serum: 12 min
Description: as §3
Extractions of parent PCB28 and its hydroxylated, methyl sulfone, and conjugated metabolites in serum, liver, adipose, and kidney samples were conducted using our previous protocol. Individual extractable metabolites were separated using a series of liquid–liquid extractions, employing a graded array of solvents with increasing polarity to facilitate the partitioning of the analytes according to their inherent lipophilic characteristics (Figure S2). Subsequently, individual fractions were classified into respective categories, including the native PCB moiety, hydroxylated PCB (OH-PCB), methyl sulfonyl-PCB (MeSO2-PCB), conjugated metabolites, and unextractable components. Analytical recoveries were quantified for each extraction and separation step. Tissue samples (200–400 mg wet weight) were prepared for analysis in a two-step homogenization process using 2 mL of hexane/acetone solvent (50:50, vol/vol). The resultant solution was centrifuged, and then the pellet underwent two successive extractions with 1.5 mL of dichloromethane (DCM), chloroform/methanol (50:50 vol/vol), methanol/water (50:50 vol/vol), and water, respectively. […] The residual hydrophobic phase was quantified as native PCB28. The quantification of unlabeled PCB28, OH-PCBs (as MeO-PCB derivatives), and MeSO2–PCBs in standards spiked samples was performed on a gas chromatograph (Agilent 6890N) equipped with a ^63Ni μ-ECD detector and SLB-5MS capillary column (60 m × 0.25 mm I.D., 0.25 μm film thickness; Supelco, St Louis, MO). […]

[5] = parameters: method as in previously reported (number not given); conditions: oral exposure to a PCB mixture; ref previously reported (number not given); cited from earlier work

Clc1cccc(-c2cccc(Cl)c2)c1 [PCB11]
serum elimination half-life [1]: 11.5 h

Clc1ccc(-c2ccc(Cl)cc2Cl)cc1 [PCB28, 2,4,4′-trichlorobiphenyl]
AUC, high dose compared to low dose ([2]; adipose tissue): 18.7 fold
C24 ([2]; adipose, high dose (42 μg i.t.)): 385 dpm/mg
C24 ([2]; adipose, low dose (4.2 μg i.t.)): 63.7 dpm/mg
C24 ([2]; bladder, high dose (42 μg i.t.)): 8.0 dpm/mg
C24 ([2]; bladder, low dose (4.2 μg i.t.)): 6.4 dpm/mg
C24 ([2]; brain, high dose (42 μg i.t.)): 11.0 dpm/mg
C24 ([2]; brain, low dose (4.2 μg i.t.)): 2.4 dpm/mg
C24 ([2]; bronchi, high dose (42 μg i.t.)): 205 dpm/mg
C24 ([2]; bronchi, low dose (4.2 μg i.t.)): 48.6 dpm/mg
C24 ([2]; esophagus, high dose (42 μg i.t.)): 13.0 dpm/mg
C24 ([2]; esophagus, low dose (4.2 μg i.t.)): 8.8 dpm/mg
C24 ([2]; heart, high dose (42 μg i.t.)): 17.0 dpm/mg
C24 ([2]; heart, low dose (4.2 μg i.t.)): 3.2 dpm/mg
blood/plasma ratio (blood-to-serum ratio) ([2]; high dose (42 μg i.t.)): 0.89
C24 ([2]; kidney, high dose (42 μg i.t.)): 23.0 dpm/mg
C24 ([2]; kidney, low dose (4.2 μg i.t.)): 5.6 dpm/mg
C24 ([2]; liver, high dose (42 μg i.t.)): 22.0 dpm/mg
C24 ([2]; liver, low dose (4.2 μg i.t.)): 5.7 dpm/mg
blood/plasma ratio (blood-to-serum ratio) ([2]; low dose (4.2 μg i.t.)): 0.89
C24 ([2]; lung, high dose (42 μg i.t.)): 44.0 dpm/mg
C24 ([2]; lung, low dose (4.2 μg i.t.)): 6.4 dpm/mg
AUC, high dose compared to low dose ([2]; muscle): 15.7 fold
C24 ([2]; muscle, high dose (42 μg i.t.)): 10.0 dpm/mg
C24 ([2]; muscle, low dose (4.2 μg i.t.)): 3.2 dpm/mg
C24 ([2]; pancreas, high dose (42 μg i.t.)): 93.0 dpm/mg
C24 ([2]; pancreas, low dose (4.2 μg i.t.)): 29.5 dpm/mg
AUC, high dose compared to low dose ([2]; prostate): 17.1 fold
C24 ([2]; prostate, high dose (42 μg i.t.)): 89.0 dpm/mg
C24 ([2]; prostate, low dose (4.2 μg i.t.)): 15.9 dpm/mg
serum AUC0–24 h, high dose compared to low dose ([2]; serum): approximately 10 fold
T1/2 ([2]; serum, high dose (42 μg i.t.), Table 1 prints mean (C–V%) without naming the dose): 12 h
C24 ([2]; serum, low dose (4.2 μg i.t.)): 0.80 dpm/mg
AUC, high dose compared to low dose ([2]; skin): 15.1 fold
C24 ([2]; skin, high dose (42 μg i.t.)): 155 dpm/mg
C24 ([2]; skin, low dose (4.2 μg i.t.)): 34.2 dpm/mg
AUC, high dose compared to low dose ([2]; spleen): 16.4 fold
C24 ([2]; spleen, high dose (42 μg i.t.)): 18.0 dpm/mg
C24 ([2]; spleen, low dose (4.2 μg i.t.)): 3.2 dpm/mg
C24 ([2]; testis, high dose (42 μg i.t.)): 6.0 dpm/mg
C24 ([2]; testis, low dose (4.2 μg i.t.)): 1.6 dpm/mg
C24 ([2]; thymus, high dose (42 μg i.t.)): 23.0 dpm/mg
C24 ([2]; thymus, low dose (4.2 μg i.t.)): 4.8 dpm/mg
C24 ([2]; thyroid, high dose (42 μg i.t.)): 72.0 dpm/mg
C24 ([2]; thyroid, low dose (4.2 μg i.t.)): 9.6 dpm/mg
C24 ([2]; trachea, high dose (42 μg i.t.)): 86.0 dpm/mg
C24 ([2]; trachea, low dose (4.2 μg i.t.)): 21.5 dpm/mg
contribution of adipose tissue to total radioactivity ([3]; high dose): 30%
contribution of adipose tissue to total radioactivity ([3]; low dose): 28%
share of the retained radioactivity sequestered in skin and adipose tissue ([3]; 24 h): 67–77%
total radioactivity remaining within the body ([3]; 24 h): 88–92%
administered dose excreted via urine and feces ([3]; 24 h study): less than 4%
retention in the body or apparent bioavailability using fecal excretion ([3]; 24 h study): 92%
increase of adipose [14C] concentration throughout the entire time course ([3]; high dose): 6.5 fold
increase of adipose [14C] concentration throughout the entire time course ([3]; low dose): 21 fold
reduction of quantified radioactivity between 12 and 50 min ([3]; blood): 37–67%
total radioactivity excreted in the feces ([3]; by the end of the 24 h study period / at any time point): no more than 4%
time of peak concentration ([3]; duodenum digestive matter, both doses): 50 min
apparent bioavailability ([3]; from fecal excretion, 24 h): up to 96%
nominal recovered radioactivity of the administered dose in the collected tissues ([3]; high dose (42 μg i.t.)): 83 ± 5%
exhaled breath, share of the total recovered radioactivity ([3]; intratracheal dosing): 0.07 ± 0.04%
pulmonary uptake ([3]; intratracheal lung dosing): 99.9 ± 3.5%
reduction of quantified radioactivity between 12 and 50 min ([3]; kidney): 36–69%
reduction of quantified radioactivity between 12 and 50 min ([3]; liver): 41–58%
share of the remaining radioactivity ([3]; liver, high dose): 16.8%
share of the remaining radioactivity ([3]; liver, low dose): 20.6%
nominal recovered radioactivity of the administered dose in the collected tissues ([3]; low dose (4.2 μg i.t.)): 74 ± 13%
reduction of quantified radioactivity between 12 and 50 min ([3]; lung): 56–73%
share of the remaining radioactivity ([3]; muscle plus liver, high dose): ~52.1%
share of the remaining radioactivity ([3]; muscle, high dose): 35.3%
share of the remaining radioactivity ([3]; pulmonary regions, low dose): 16.7%
more radioactivity retained in serum at the low dose than at the high dose ([3]; serum, same time point): 92%
time of peak radioactivity ([3]; stomach matter): 50 min
increase of parent PCB28 concentration over the entire study time course ([4]; adipose tissue, high dose): 9 fold
increase of parent PCB28 concentration between 200 and 720 min ([4]; adipose tissue, low dose): 3 fold
increase of parent PCB28 concentration over the entire study time course ([4]; adipose tissue, low dose): 36 fold
peak concentration of parent compound in serum ([4]; high dose): 47 dpm/mg
peak concentration of parent compound in serum ([4]; low dose): 7.6 dpm/mg
time of peak adipose concentration [5]: 24 h
